Data: US11434225B2, “Salts and solid state forms of plinabulin” (PLIVA HRVATSKA D.O.O., priority 2017, dated 2022)

Details: solid state form

With CC(C)(C)c1[nH]cnc1/C=c1\[nH]c(=O)/c(=C/c2ccccc2)[nH]c1=O [Plinabulin Form G] as the compound, how does the “stability upon exposure to humidity” value (upon exposure to humidity) read?
Its value is “shows stability”.

What about the stability upon heating (upon heating) of the same compound?
Its stability upon heating is “shows stability”.
